Test: Stability of each ingredient according to time and temperature (HPLC content)
Type: physicochemical
Design: content of ingredient: unit not given here
Details: for stability of ingredient content over time and temperature: summary in words of Table 3, FIGS. 6 to 8
Procedure: In order to compare the catechin contents of the fermented green tea extract, each sample was analyzed by WATERS 2695 HPLC manufactured by Alliance, and analyzed using an ODS (C18) column. […] Each numerical value in Table 1 indicates the wt % of the corresponding ingredient, based on the total weight ratio of the extract.

[1] = Week 16: 45° C./Normal pressure
[2] = Week 16: Room temperature/Normal pressure
[3] = Week 25: 45° C./Normal pressure
[4] = Week 25: Refrigerated/Normal pressure
[5] = Week 25: Room temperature/Normal pressure

content of ingredient (Day 1 (Feb. 20, 2017)) | content of ingredient (Week 1 (Feb. 27, 2017)) | content of ingredient (Week 2 (Mar. 6, 2017)) | content of ingredient [1] | content of ingredient [2] | content of ingredient [3] | content of ingredient [4] | content of ingredient [5] | Compound | stability of ingredient content over time and temperature
2.12 | 2.12 | 2.19 | 2.50 | 2.84 | 2.28 | 2.61 | 2.06 | Oc1cc(O)c2c(c1)O[C@H](c1cc(O)c(O)c(O)c1)[C@H](O)C2 [EGC, epigallocatechin] | –
7.80 | 7.95 | 7.79 | 8.74 | 8.72 | 7.62 | 7.93 | 7.27 | O=C(O[C@@H]1Cc2c(O)cc(O)cc2O[C@H]1c1cc(O)c(O)c(O)c1)c1cc(O)c(O)c(O)c1 [GCG, (−)-gallocatechin gallate] | maintained relatively stably
7.48 | 7.70 | 7.53 | 7.72 | 7.79 | 6.61 | 7.19 | 6.19 | (−)-epigallocatechin gallate [EGCG] | rapidly decreased after a predetermined period
2.22 | 2.28 | 2.27 | 2.38 | 2.36 | 2.21 | 2.15 | 2.02 | epicatechin 3-O-gallate [ECG] | –

Reference: patent publication US11266706B2, “Method for preventing or alleviating lipid metabolism disorders using composition containing green tea extract with increased specific ingredient content” (AMOREPACIFIC CORPORATION, priority 2017, dated 2022)
